Data on three compounds can be found in patent US12329786B2, “Regulate gut microbiota to treat neurodegenerative disorders” (California Institute of Technology, priority 2016, dated 2025).

The test deals with T1, human αSyn (Homo sapiens, UniProt P37840).
T1 construct: made in house
Description: In vitro αSyn aggregation kinetics by ThT fluorescence. The class given is biochemical. As to conditions: range of concentrations, singly or in mixtures. As to the method: The ThT fluorescence signal was recorded using a microplate reader (Fluostar OPTIMA Microplate reader, BMG Labtech) with the excitation filter of 440±10 nm and an emission filter of 490±10 nm under intermittent shaking conditions at 37 °C. The kinetic curves were normalized to the fluorescence maxima and the time to reach half-maximum intensity quantified. For atomic force microscopy (AFM) imaging, samples were diluted with ultrapure water to […] total protein concentration, and […] were pipetted onto freshly cleaved mica and left to dry. The samples were imaged with a Modular scanning probe microscope NTEGRA Prima (NT-MDT) in intermittent contact mode in air using a gold-coated single crystal silicon cantilever (spring constant of ˜5.1 N/m) with a resonance frequency of ˜150 kHz. AFM images were processed with Gwyddion open source software.

Turning to `CC(=O)[O-].[Na+]` [sodium acetate], the “αSyn aggregation kinetics (ThT fluorescence, time to half-max)” value (shortened to “αSyn aggregation kinetics”) was “did not expedite the aggregation of human αSyn in vitro”.
For `CCCC(=O)[O-].[Na+]` [sodium butyrate], the “αSyn aggregation kinetics” value is on record as “did not expedite the aggregation of human αSyn in vitro”.
For the compound `CCC(=O)[O-].[Na+]` [sodium propionate], the “αSyn aggregation kinetics” value is “did not expedite the aggregation of human αSyn in vitro”.
